# Molecular target: T1, ASK-1 enzyme (Homo sapiens, UniProt Q99683)
# T1 construct: purchased Signal Chem M13-11G-10
# Test: Inhibitory ability against ASK-1 enzyme activity (ADP-Glo Kinase Assay)
# Format: biochemical
# Settings: 250 μM ATP, MBP substrate, 15 ng ASK-1 enzyme, 30° C. 40 minutes
# Procedure: Experimental Example 1: Assay of Inhibitory Ability Against ASK-1 Enzyme Activity (ADP-Glo™ Kinase Assay)
# In order to evaluate the inhibitory ability of the compounds of Examples 1 to 24 against ASK-1 enzyme activity, the following experiment was carried out using ADP-Glo™ (Promega, Cat. No. V9101). Each of the compounds was prepared into a solution at concentrations of 0.32 nM, 1.6 nM, 8 nM, 40 nM, 200 nM, 1,000 nM by adding a kinase buffer solution (40 mM Tris, 20 mM MgCl2, 0.1 mg/mL bovine serum albumin in H2O). Subsequently, 250 μM of ATP (Promega, Cat. No. V915A) and 0.5 μg/μL of MBP substrate (Signal Chem, Cat. No. 42-51N) were added thereto, and the mixture was reacted at 30° C. for 40 minutes in the presence of 15 ng of ASK-1 enzyme (Signal Chem, Cat. No. M13-11G-10). Then, the ADP-Glo™ reagent and a kinase detection reagent were sequentially added thereto and reacted for 40 minutes and 10 minutes, respectively. After completion of the reaction, luminescence was measured using a Synergy™ NEO microplate reader (BioTEK, NEOB-1311189).
# The inhibitory ability of the compounds of Examples 1 to 24 against ASK-1 enzyme activity was verified by analyzing data from the measured RLU values. Specifically, the inhibitory ability against ASK-1 enzyme activity was assessed by deriving the residual activity percentage of the ASK-1 enzyme in the samples treated with the compounds at the concentration to be tested, while using the RLU value of the sample not treated with the compounds as a 100% control.
# T1 sequence (Q99683 649-946 limits assumed): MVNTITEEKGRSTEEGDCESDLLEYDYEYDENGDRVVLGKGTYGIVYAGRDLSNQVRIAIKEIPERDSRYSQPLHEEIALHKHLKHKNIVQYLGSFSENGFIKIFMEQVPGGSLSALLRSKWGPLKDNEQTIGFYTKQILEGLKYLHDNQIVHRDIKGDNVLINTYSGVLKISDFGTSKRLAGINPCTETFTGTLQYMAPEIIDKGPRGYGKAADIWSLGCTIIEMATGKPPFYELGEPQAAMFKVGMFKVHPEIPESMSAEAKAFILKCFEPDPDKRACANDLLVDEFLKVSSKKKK
row,Structure (SMILES),IC50
1,"Cc1ncc(-c2ccc(C(=O)Nc3cccc(-c4nncn4C(C)C)n3)[nH]2)cn1 [Example 12, N-(6-(4-isopropyl-4H-1,2,4-triazol-3-yl)pyridin-2-yl)-5-(2-methylpyrimidine-5-yl)-1H-pyrrole-2-carboxamide]",9.9 nM
2,"COCc1c[nH]c(C(=O)Nc2cccc(-c3nncn3C(C)C)n2)c1 [Example 3, N-(6-(4-isopropyl-4H-1,2,4-triazol-3-yl)pyridin-2-yl)-4-(methoxymethyl)-1H-pyrrole-2-carboxamide]",7.7 nM
3,"Cc1ccc(-c2ccc(C(=O)Nc3cccc(-c4nncn4C(C)C)n3)[nH]2)cc1 [Example 10, N-(6-(4-isopropyl-4H-1,2,4-triazol-3-yl)pyridin-2-yl)-5-p-tolyl-1H-pyrrole-2-carboxamide]",10.2 nM
4,"CSc1ccc(-c2ccc(C(=O)Nc3cccc(-c4nncn4C(C)C)n3)[nH]2)cc1 [Example 21, N-(6-(4-isopropyl-4H-1,2,4-triazol-3-yl)pyridin-2-yl)-5-(4-(methylthio)phenyl)-1H-pyrrole-2-carboxamide]",3.1 nM
5,"Cc1ccc(-c2ccc(C(=O)Nc3cccc(-c4nncn4C(C)C)n3)[nH]2)cc1C [Example 18, 5-(3,4-dimethylphenyl)-N-(6-(4-isopropyl-4H-1,2,4-triazol-3-yl)pyridin-2-yl)-1H-pyrrole-2-carboxamide]",4.8 nM
6,"Cc1cccc(-c2c[nH]c(C(=O)Nc3cccc(-c4nncn4C(C)C)n3)c2)c1 [Example 2, N-(6-(4-isopropyl-4H-1,2,4-triazol-3-yl)pyridin-2-yl)-4-m-tolyl-1H-pyrrole-2-carboxamide]",4 nM
7,"CC(C)n1cnnc1-c1cccc(NC(=O)c2ccc(-c3ccc(Cl)cc3)[nH]2)n1 [Example 16, 5-(4-chlorophenyl)-N-(6-(4-isopropyl-4H-1,2,4-triazol-3-yl)pyridin-2-yl)-1H-pyrrole-2-carboxamide]",5.4 nM
8,"Cc1c[nH]c(C(=O)Nc2cccc(-c3nncn3C(C)C)n2)c1 [Example 1, N-(6-(4-isopropyl-4H-1,2,4-triazol-3-yl)pyridin-2-yl)-4-methyl-1H-pyrrole-2-carboxamide]",9.9 nM
9,"CC(C)n1cnnc1-c1cccc(NC(=O)c2ccc(-c3ccc(S(C)(=O)=O)cc3)[nH]2)n1 [Example 13, N-(6-(4-isopropyl-4H-1,2,4-triazol-3-yl)pyridin-2-yl)-5-(4-(methylsulfonyl)phenyl)-1H-pyrrole-2-carboxamide]",4.4 nM
10,"Cc1ccccc1-c1ccc(C(=O)Nc2cccc(-c3nncn3C(C)C)n2)[nH]1 [Example 22, N-(6-(4-isopropyl-4H-1,2,4-triazol-3-yl)pyridin-2-yl)-5-o-tolyl-1H-pyrrole-2-carboxamide]",5.1 nM
11,"Cc1ccc(-c2ccc(C(=O)Nc3cccc(-c4nncn4C(C)C)n3)[nH]2)cc1F [Example 19, 5-(3-fluoro-4-methylphenyl)-N-(6-(4-isopropyl-4H-1,2,4-triazol-3-yl)pyridin-2-yl)-1H-pyrrole-2-carboxamide]",5.2 nM
12,"Cc1cccc(-c2ccc(C(=O)Nc3cccc(-c4nncn4C(C)C)n3)[nH]2)c1 [Example 14, N-(6-(4-isopropyl-4H-1,2,4-triazol-3-yl)pyridin-2-yl)-5-m-tolyl-1H-pyrrole-2-carboxamide]",5.8 nM
13,"CC(C)n1cnnc1-c1cccc(NC(=O)c2ccc(-c3cccs3)[nH]2)n1 [Example 17, N-(6-(4-isopropyl-4H-1,2,4-triazol-3-yl)pyridin-2-yl)-5-(thiophene-2-yl)-1H-pyrrole-2-carboxamide]",7.9 nM
14,"CCc1ccc(C(=O)Nc2cccc(-c3nncn3C(C)C)n2)[nH]1 [Example 11, 5-ethyl-N-(6-(4-isopropyl-4H-1,2,4-triazol-3-yl)pyridin-2-yl)-1H-pyrrole-2-carboxamide]",49.7 nM
15,"CCOc1ccc(-c2ccc(C(=O)Nc3cccc(-c4nncn4C(C)C)n3)[nH]2)cc1 [Example 24, 5-(4-ethoxyphenyl)-N-(6-(4-isopropyl-4H-1,2,4-triazol-3-yl)pyridin-2-yl)-1H-pyrrole-2-carboxamide]",7.5 nM
16,"Cc1ccc(C(=O)Nc2cccc(-c3nncn3C(C)C)n2)[nH]1 [Example 8, N-(6-(4-isopropyl-4H-1,2,4-triazol-3-yl)pyridin-2-yl)-5-methyl-1H-pyrrole-2-carboxamide]",34.4 nM
17,"Cc1cc(C)cc(-c2ccc(C(=O)Nc3cccc(-c4nncn4C(C)C)n3)[nH]2)c1 [Example 15, 5-(3,5-dimethylphenyl)-N-(6-(4-isopropyl-4H-1,2,4-triazol-3-yl)pyridin-2-yl)-1H-pyrrole-2-carboxamide]",8.5 nM
18,"Cc1ccc(-c2c[nH]c(C(=O)Nc3cccc(-c4nncn4C(C)C)n3)c2)cc1 [Example 5, N-(6-(4-isopropyl-4H-1,2,4-triazol-3-yl)pyridin-2-yl)-4-p-tolyl-1H-pyrrole-2-carboxamide]",6 nM
19,"CC(C)n1cnnc1-c1cccc(NC(=O)c2cc(-c3ccccc3)c[nH]2)n1 [Example 6, N-(6-(4-isopropyl-4H-1,2,4-triazol-3-yl)pyridin-2-yl)-4-phenyl-1H-pyrrole-2-carboxamide]",6.5 nM
20,"CC(C)n1cnnc1-c1cccc(NC(=O)c2ccc(-c3ccc(F)cc3)[nH]2)n1 [Example 23, 5-(4-fluorophenyl)-N-(6-(4-isopropyl-4H-1,2,4-triazol-3-yl)pyridin-2-yl)-1H-pyrrole-2-carboxamide]",5.9 nM
21,"CC(C)n1cnnc1-c1cccc(NC(=O)c2ccc(-c3ccccc3)[nH]2)n1 [Example 9, N-(6-(4-isopropyl-4H-1,2,4-triazol-3-yl)pyridin-2-yl)-5-phenyl-1H-pyrrole-2-carboxamide]",5.8 nM
22,"CCc1c[nH]c(C(=O)Nc2cccc(-c3nncn3C(C)C)n2)c1 [Example 4, 4-ethyl-N-(6-(4-isopropyl-4H-1,2,4-triazol-3-yl)pyridin-2-yl)-1H-pyrrole-2-carboxamide]",8.3 nM
23,"CC(C)n1cnnc1-c1cccc(NC(=O)c2ccc[nH]2)n1 [Example 7, N-(6-(4-isopropyl-4H-1,2,4-triazol-3-yl)pyridin-2-yl)-1H-pyrrole-2-carboxamide]",11.6 nM
24,"CC(C)n1cnnc1-c1cccc(NC(=O)c2ccc(-c3ccc(F)c(Cl)c3)[nH]2)n1 [Example 20, 5-(3-chloro-4-fluorophenyl)-N-(6-(4-isopropyl-4H-1,2,4-triazol-3-yl)pyridin-2-yl)-1H-pyrrole-2-carboxamide]",5.3 nM

# Source: patent publication US12077523B2, “N-(isopropyl-triazolyl)pyridinyl)-heteroaryl-carboxamide derivatives and use thereof” (HK INNO.N CORPORATION, priority 2018, dated 2024)
